Measured values published in patent US5948791A, “Quinoline derivatives for treating malaria” (Hoffmann-La Roche Inc., priority 1995, dated 1999).
Where a name gives a salt, the structure may show the parent alone. Read-outs that look alike come from different tables or passages of the source.

How the values were obtained:
[1] = test system: Plasmodium falciparum strain NF54; test: Growth inhibition of Plasmodium falciparum NF54 (chloroquine-sensitive) in vitro, [G-3H]-hypoxanthin incorporation; assay type: cell-based; conditions: chloroquine-sensitive strain NF54, 72 h, read-out: IC50 for P. falciparum NF54
In short: (§1)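 Asynchronous intraerythrocytic cultures in human A+ erythrocytes (0.7% parasitemia, 2.5% suspension) in RPMI 1640 with HEPES, NaHCO3 and human serum, exposed to compound titrated over 6-7 steps for 72 h at 37° C, 3% O2. Growth by [G-3H]-hypoxanthin incorporation against untreated controls; IC50 by logit regression.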

[2] = test system: Plasmodium falciparum K1; test: Growth inhibition of Plasmodium falciparum K1 (chloroquine-resistant) in vitro, [G-3H]-hypoxanthin incorporation; assay type: cell-based, Plasmodium falciparum (strain K1); conditions: for IC50: Plasmodium falciparum, K1, 72 h, read-out: IC50 for P. falciparum K1; for Resistance index: ratio of the IC50 for K1 and the IC50 for NF54
In short: as §1

[3] = test system: Plasmodium berghei; test: animal or person; assay type: in vivo, Plasmodium berghei (strain ANKA) in mice; conditions: Plasmodium berghei, mice, blood smears 48 h after treatment
In short: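 Male albino mice (~25 g) infected i.v. on D0 with P. berghei ANKA (0.2 ml of 10^8 parasitized erythrocytes/ml); single s.c. and p.o. dose 24 h post-infection, 10 mg/kg screen then titration.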

[4] = po, single peroral dose of 10 mg/kg, read-out: Growth inhibition in % after po administration (GI%, percentage reduction of the parasitemia)
[5] = sc, single subcutaneous dose of 10 mg/kg, read-out: Growth inhibition in % after sc administration (GI%, percentage reduction of the parasitemia)

Row | SMILES | IC50 [1] [mg/L] | IC50 [2] [mg/L] | Resistance index [2] | inhibition in vivo at 10 mg/kg [3, 4] [%] | inhibition in vivo at 10 mg/kg [3, 5] [%]
1 | CCN(CC)c1ccc(CNC(C)(C)CNc2ccnc3cc(Cl)ccc23)cc1.Cl.Cl.Cl [Example 46, N1-(7-Chloro-quinolin-4-yl)-N2-(4-diethylamino-benzyl)-2-methyl-propane-1,2-diamine trihydrochloride] | 0.0101 | 0.0126 | 1.2 | 99.7 | 99
2 | CC(C)(CNc1ccnc2cc(Cl)ccc12)NCc1ccc([N+](=O)[O-])cc1 [Example 47, N1-(7-Chloro-quinolin-4-yl)-N2-(4-nitro-benzyl)-2-methy-propane-1,2-diamine dihydrochloride] | 0.0094 | 0.0136 | 1.4 | 70 | 79
3 | CC(C)(CNc1ccnc2cc(Cl)ccc12)NCc1cccc(C#N)c1.Cl.Cl [Example 48, N1-(7-Chloro-quinolin-4-yl)-N2-(3-cyano-benzyl)-2-methyl-propane-1,2-diamine dihydrochloride] | 0.0123 | 0.0159 | 1.3 | 99.9 | 99.9
4 | CC(C)(CNc1ccnc2cc(Cl)ccc12)NCc1ccc(C#N)cc1.Cl.Cl [Example 49, N1-(7-Chloro-quinolin-4-yl)-N2-(4-cyano-benzyl)-2-methyl-propane-1,2-diamine dihydrochloride] | 0.0082 | 0.0124 | 1.5 | 88 | 87
5 | CC(C)c1ccc(CNC(C)(C)CNc2ccnc3cc(Cl)ccc23)cc1.Cl.Cl [Example 50, N1-(7-Chloro-quinolin-4-yl)-N2-(4-isopropyl-benzyl)-2-methyl-propane-1,2-diamine dihydrochloride] | 0.0142 | 0.0143 | 1.0 | 93 | 96
6 | CC(C)(CNc1ccnc2cc(Cl)ccc12)NCc1ccc(-c2ccccc2)cc1 [Example 51, N1-(7-Chloro-quinolin-4-yl)-N2-(bipenyl-4-yl-methyl)-2-methyl-propane-1,2-diamine dihydrochloride] | 0.0123 | 0.0091 | 0.7 | 82 | 99
7 | CC(C)(CNc1ccnc2cc(Cl)ccc12)NCc1ccccn1.Cl.Cl.Cl [Example 56, N1-(7-Chloro-quinolin-4-yl)-N2-(pyridin-2-yl-methyl)-2-methyl-propane-1,2-diamine trihydrochloride] | 0.0313 | 0.0537 | 1.7 | 98 | 97
8 | CC(C)(CNc1ccnc2cc(Cl)ccc12)NCc1cccnc1.Cl.Cl.Cl [Example 57, N1-(7-Chloro-quinolin-4-yl)-N2-(pyridin-3-yl-methyl)-2-methyl-propane-1,2-diamine trihydrochloride] | 0.0217 | 0.0282 | 1.3 | 99.4 | 99.7
9 | CC(C)(CNc1ccnc2cc(Cl)ccc12)NCc1ccnc2ccccc12.Cl.Cl.Cl [Example 58, N1-(7-Chloro-quinolin-4-yl)-N2-(quinolin-4-yl-methyl)-2-methyl-propane-1,2-diamine trihydrochloride] | 0.0293 | 0.069 | 2.4 | 72 | 88
10 | Cl.Cl.Clc1ccc2c(N[C@H]3CCCC[C@@H]3NCc3ccccc3)ccnc2c1 [Example 60, (1S,2S)-N1-(7-Chloro-quinolin-4-yl)-N2-(benzyl)-cyclohexane-1,2-diamine hydrochloride (1:2)] | 0.0077 | 0.0122 | 1.6 | 67 | 87
11 | Cl.Cl.Clc1ccc(CN[C@H]2CCCC[C@@H]2Nc2ccnc3cc(Cl)ccc23)cc1 [Example 61, (1S,2S)-N1-(7-Chloro-quinolin-4-yl)-N2-(4-chloro-benzyl)-cyclohexane-1,2-diamine dihydrochloride] | 0.0127 | 0.0112 | 0.9 | 99.6 | 99.6
12 | Cl.Cl.Clc1ccc(CN[C@H]2CCCC[C@@H]2Nc2ccnc3cc(Cl)ccc23)c(Cl)c1 [Example 62, (1S,2S)-N1-(7-Chloro-quinolin-4-yl)-N2-(2,4-dichloro-benzyl)-cyclohexane-1,2-diamine dihydrochloride] | 0.0508 | 0.0642 | 1.3 | 99.8 | 99.8
13 | Cl.Cl.Clc1ccc2c(N[C@H]3CCCC[C@@H]3NCc3ccc(Cl)c(Cl)c3)ccnc2c1 [Example 63, (1S,2S)-N1-(7-Chloro-quinolin-4-yl)-N2-(3,4-dichloro-benzyl)-cyclohexane-1,2-diamine dihydrochloride] | 0.0101 | 0.0146 | 1.4 | 99.9 | 99.9
14 | Cl.Cl.FC(F)(F)c1ccc(CN[C@H]2CCCC[C@@H]2Nc2ccnc3cc(Cl)ccc23)c(C(F)(F)F)c1 [Example 64, (1S,2S)-N1-(7-Chloro-quinolin-4-yl)-N2-(2,4-bis-trifluoromethyl-benzyl)-cyclohexane-1,2-diamine dihydrochloride] | 0.0357 | 0.0823 | 2.3 | 87 | 66
15 | CN(C)c1ccc(CN[C@H]2CCCC[C@@H]2Nc2ccnc3cc(Cl)ccc23)cc1.Cl.Cl [Example 66, (1S,2S)-N1-(7-Chloro-quinolin-4-yl)-N2-(4-dimethylamino-benzyl)-cyclohexane-1,2-diamine dihydrochloride] | 0.0056 | 0.0105 | 1.9 | 99.9 | 99.6
16 | Cl.Cl.N#Cc1ccc(CN[C@H]2CCCC[C@@H]2Nc2ccnc3cc(Cl)ccc23)cc1 [Example 67, (1S,2S)-N1-(7-Chloro-quinolin-4-yl)-N2-(4-cyano-benzyl)-cyclohexane-1,2-diamine dihydrochloride] | 0.0091 | 0.023 | 2.5 | 99 | 99
17 | CN(C)c1ccc(CN[C@H]2CC[C@@H](Nc3ccnc4cc(Cl)ccc34)CC2)cc1.Cl.Cl.Cl [Example 69, cis-N1-(7-Chloro-quinolin-4-yl)-N4-(4-dimethylamino-benzyl)-cyclohexane-1,4-diamine trihydrochloride] | 0.0037 | 0.0046 | 1.2 | 100 | 100
18 | Cl.Cl.Clc1ccc2c(N[C@H]3CC[C@@H](NCc4ccccc4)CC3)ccnc2c1 [Example 70, cis-N1-(7-Chloro-quinolin-4-yl)-N4-(benzyl)-cyclohexane-1,4-diamine dihydrochloride] | 0.0038 | 0.0066 | 1.7 | 99.9 | 99.9
19 | Cl.Cl.Clc1cccc(CN[C@H]2CC[C@@H](Nc3ccnc4cc(Cl)ccc34)CC2)c1 [Example 71, cis-N1-(7-Chloro-quinolin-4-yl)-N4-(3-chloro-benzyl)-cyclohexane-1,4-diamine dihydrochloride] | 0.0071 | 0.0093 | 1.3 | 99.8 | 99.9
20 | Cl.Cl.Clc1ccc(CN[C@H]2CC[C@@H](Nc3ccnc4cc(Cl)ccc34)CC2)cc1 [Example 72, cis-N1-(7-Chloro-quinolin-4-yl)-N4-(4-chloro-benzyl)-cyclohexane-1,4-diamine dihydrochloride] | 0.0116 | 0.0112 | 1.0 | 99.5 | 99.9
21 | Cl.Cl.Clc1ccc(CN[C@H]2CC[C@@H](Nc3ccnc4cc(Cl)ccc34)CC2)c(Cl)c1 [Example 73, cis-N1-(7-Chloro-quinolin-4-yl)-N4-(2,4-dichloro-benzyl)-cyclohexane-1,4-diamine dihydrochloride] | 0.015 | 0.019 | 1.3 | 23 | 96
22 | Cl.Cl.Clc1ccc2c(N[C@H]3CC[C@@H](NCc4ccc(Cl)c(Cl)c4)CC3)ccnc2c1 [Example 74, cis-N1-(7-Chloro-quinolin-4-yl)-N4-(3,4-dichloro-benzyl)-cyclohexane-1,4-diamine dihydrochloride] | 0.0233 | 0.0145 | 0.6 | 83 | 84
23 | Cl.Cl.Clc1cc(Cl)cc(CN[C@H]2CC[C@@H](Nc3ccnc4cc(Cl)ccc34)CC2)c1 [Example 75, cis-N1-(7-Chloro-quinolin-4-yl)-N4-(3,5-dichloro-benzyl)-cyclohexane-1,4-diamine dihydrochloride] | 0.025 | 0.018 | 0.7 | 99.8 | 99.7
